Key:
BTK = target: T1, BTK (Homo sapiens, UniProt Q06187); experiment: BTK degradation in TMD-8 cells (HTRF assay); type: cell-based; settings: 6 h treatment, IC50 (DC50) of BTK degradation
T1 construct: High control=Cell group with added DMSO and without compound, indicating microplate readings without BTK degradation; endogenous in cells; host or cells: TMD-8
Outline: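 TMD-8 cells were exposed for 6 h to 8 compound doses (6-fold serial dilution, 0.2% DMSO). Lysed cells were incubated overnight at room temperature with HTRF antibodies and read at 665/620 nm. DC50 came from four-parameter fitting of % inhibition versus concentration.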

HEK-293 cells = experiment: HEK-293 cytotoxicity detection (CellTiter-Glo); type: cell-based; settings: Homo sapiens; HEK-293 cells, 72 h incubation, CellTiter-Glo luminescence, IC50 of cell proliferation inhibition; read-out: HEK293
Outline: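 HEK-293 cells exposed 72 h to an 8-point, 4-fold dilution series (top 500× stock 5 mM in DMSO; 0.2% DMSO final). Viability by CellTiter-Glo luminescence after 10 min at room temperature; IC50 from four-parameter Hill fit of percent inhibition.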

T1 sequence (Q06187 whole entry): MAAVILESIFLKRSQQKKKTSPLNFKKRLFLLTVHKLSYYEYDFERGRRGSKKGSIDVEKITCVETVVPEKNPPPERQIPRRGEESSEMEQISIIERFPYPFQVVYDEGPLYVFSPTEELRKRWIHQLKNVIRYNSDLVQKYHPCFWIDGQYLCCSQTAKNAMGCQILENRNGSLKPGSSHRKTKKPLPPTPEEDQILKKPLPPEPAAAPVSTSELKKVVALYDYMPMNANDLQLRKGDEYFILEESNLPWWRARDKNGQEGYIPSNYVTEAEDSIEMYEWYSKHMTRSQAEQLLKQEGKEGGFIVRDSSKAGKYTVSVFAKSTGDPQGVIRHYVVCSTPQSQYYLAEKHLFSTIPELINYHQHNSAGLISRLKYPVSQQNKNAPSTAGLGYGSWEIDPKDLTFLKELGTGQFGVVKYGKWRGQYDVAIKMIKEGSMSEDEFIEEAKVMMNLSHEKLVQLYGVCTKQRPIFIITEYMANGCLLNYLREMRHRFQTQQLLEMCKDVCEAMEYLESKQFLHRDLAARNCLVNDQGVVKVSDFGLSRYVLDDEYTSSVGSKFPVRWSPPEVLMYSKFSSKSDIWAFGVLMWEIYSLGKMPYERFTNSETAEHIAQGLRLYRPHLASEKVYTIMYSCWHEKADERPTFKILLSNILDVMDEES

Structure (SMILES)	DC50 (BTK)	IC50 (HEK-293 cells)
Cc1cc(-c2ncnc3[nH]c4cc(N5CCN(C6CC(c7ccc([C@@H]8CCC(=O)NC8=O)cc7)C6)CC5)ccc4c23)c(F)cc1[C@@H](C)NC(=O)c1nc(C(C)(C)C)no1 (stereo partly drawn) [Example 25, 3-(tert-butyl)-N—((R)-1-(4-(7-(4-(3-(4-((S)-2,6-dioxopiperidin-3-yl)phenyl)cyclobutyl)piperazin-1-yl)-9H-pyrimido[4,5-b]indol-4-yl)-5-fluoro-2-methylphenyl)ethyl)-1,2,4-oxadiazole-5-carboxamide]	0.872 nM	> 10000 nM
C[C@@H](NC(=O)c1nc(C(C)(C)C)no1)C1CCN(c2ncnc3[nH]c4cc(N5CCN(CC6CCN(c7ccc(N8CCC(=O)NC8=O)cc7)CC6)CC5)ccc4c23)CC1 [Example 130, (R)-3-(tert-butyl)-N-(1-(1-(7-(4-((1-(4-(2,4-dioxotetrahydropyrimidin-1(2H)-yl)phenyl)piperidin-4-yl)methyl)piperazin-1-yl)-9H-pyrimido[4,5-b]indol-4-yl)piperidin-4-yl)ethyl)-1,2,4-oxadiazole-5-carboxamide]	63.2 nM	> 10000 nM
Cc1cc(-c2ncnc3[nH]c4cc(N5CCN(C6CC(c7ccc([C@@H]8CCC(=O)NC8=O)cc7)C6)CC5)ccc4c23)ccc1[C@@H](C)NC(=O)c1nc(C2(C)CC2)no1 (stereo partly drawn) [Example 67, N—((R)-1-(4-(7-(4-(3-(4-((S)-2,6-dioxopiperidin-3-yl)phenyl)cyclobutyl)piperazin-1-yl)-9H-pyrimido[4,5-b]indol-4-yl)-2-methylphenyl)ethyl)-3-(1-methylcyclopropyl)-1,2,4-oxadiazole-5-carboxamide]	1.27 nM	> 10000 nM
Cc1cc(-c2ncnc3[nH]c4cc(N5CCN(C6CC(c7ccc([C@H]8CCC(=O)NC8=O)cc7)C6)CC5)ccc4c23)c(F)cc1[C@@H](C)NC(=O)c1nc(C2(C)CC2)no1 (stereo partly drawn) [Example 96, N—((R)-1-(4-(7-(4-(3-(4-((R)-2,6-dioxopiperidin-3-yl)phenyl)cyclobutyl)piperazin-1-yl)-9H-pyrimido[4,5-b]indol-4-yl)-5-fluoro-2-methylphenyl)ethyl)-3-(1-methylcyclopropyl)-1,2,4-oxadiazole-5-carboxamide]	2.98 nM	> 10000 nM
Cc1cc(CCN2CCN(c3ccc4c(c3)[nH]c3ncnc(-c5ccc([C@@H](C)NC(=O)c6nc(C(C)(C)C)no6)c(C)c5)c34)CC2)ccc1C1CCC(=O)NC1=O (stereo partly drawn) [Example 18, 3-(tert-butyl)-N-((1R)-1-(4-(7-(4-(4-(2,6-dioxopiperidin-3-yl)-3-methylphenethyl)piperazin-1-yl)-9H-pyrimido[4,5-b]indol-4-yl)-2-methylphenyl)ethyl)-1,2,4-oxadiazole-5-carboxamide]	0.607 nM	> 10000 nM
Cc1c([C@@H](C)NC(=O)c2noc(C(C)(C)C)n2)ccc(-c2ncnc3[nH]c4cc(N5CCN(CCc6cccc7c6n(C)c(=O)n7C6CCC(=O)NC6=O)CC5)ccc4c23)c1F (stereo partly drawn) [Example 82, 5-(tert-butyl)-N-((1R)-1-(4-(7-(4-(2-(1-(2,6-dioxopiperidin-3-yl)-3-methyl-2-oxo-2,3-dihydro-1H-benzo[d]imidazol-4-yl)ethyl)piperazin-1-yl)-9H-pyrimido[4,5-b]indol-4-yl)-3-fluoro-2-methylphenyl)ethyl)-1,2,4-oxadiazole-3-carboxamide]	3.17 nM	> 10000 nM
Cc1cc(-c2ncnc3[nH]c4cc(CCN5CCN(C6CN(c7ccc(N8CCC(=O)NC8=O)cc7)C6)CC5)ccc4c23)ccc1[C@@H](C)NC(=O)c1nc(C(C)(C)C)no1 [Example 105, (R)-3-(tert-butyl)-N-(1-(4-(7-(2-(4-(1-(4-(2,4-dioxotetrahydropyrimidin-1(2H)-yl)phenyl)azetidin-3-yl)piperazin-1-yl)ethyl)-9H-pyrimido[4,5-b]indol-4-yl)-2-methylphenyl)ethyl)-1,2,4-oxadiazole-5-carboxamide]	0.512 nM	> 10000 nM
Cc1c([C@@H](C)NC(=O)c2noc(C(C)(C)C)n2)ccc(-c2ncnc3[nH]c4cc(N5CCN(C6CN(c7ccc(N8CCC(=O)NC8=O)cc7)C6)CC5)ccc4c23)c1F [Example 63, (R)-5-(tert-butyl)-N-(1-(4-(7-(4-(1-(4-(2,4-dioxotetrahydropyrimidin-1(2H)-yl)phenyl)azetidin-3-yl)piperazin-1-yl)-9H-pyrimido[4,5-b]indol-4-yl)-3-fluoro-2-methylphenyl)ethyl)-1,2,4-oxadiazole-3-carboxamide]	6.82 nM	> 10000 nM
Cc1cc(-c2ncnc3[nH]c4cc(N5CCN(CCc6ccc(N7CCC(=O)NC7=O)cn6)CC5)ccc4c23)ccc1[C@@H](C)NC(=O)c1nc(C(C)(C)C)no1 [Example 19, (R)-3-(tert-butyl)-N-(1-(4-(7-(4-(2-(5-(2,4-dioxotetrahydropyrimidin-1(2H)-yl)pyridin-2-yl)ethyl)piperazin-1-yl)-9H-pyrimido[4,5-b]indol-4-yl)-2-methylphenyl)ethyl)-1,2,4-oxadiazole-5-carboxamide]	0.564 nM	5650 nM
Cc1cc(-c2ncnc3[nH]c4cc(N5CCN(CC6CCN(c7ccc(N8CCC(=O)NC8=O)c(C)c7)CC6)CC5)ccc4c23)ccc1[C@@H](C)NC(=O)c1nc(C(C)(C)C)no1 [Example 8, (R)-3-(tert-butyl)-N-(1-(4-(7-(4-((1-(4-(2,4-dioxotetrahydropyrimidin-1(2H)-yl)-3-methylphenyl)piperidin-4-yl)methyl)piperazin-1-yl)-9H-pyrimido[4,5-b]indol-4-yl)-2-methylphenyl)ethyl)-1,2,4-oxadiazole-5-carboxamide]	0.481 nM	> 10000 nM
Cc1c([C@@H](C)NC(=O)c2noc(C(C)(C)C)n2)ccc(-c2ncnc3[nH]c4cc(N5CCN(C6CC(c7ccc([C@@H]8CCC(=O)NC8=O)cc7)C6)CC5)ccc4c23)c1F (stereo partly drawn) [Example 31, 5-(tert-butyl)-N—((R)-1-(4-(7-(4-(3-(4-((S)-2,6-dioxopiperidin-3-yl)phenyl)cyclobutyl)piperazin-1-yl)-9H-pyrimido[4,5-b]indol-4-yl)-3-fluoro-2-methylphenyl)ethyl)-1,2,4-oxadiazole-3-carboxamide]	1.43 nM	> 10000 nM
Cc1cc(-c2ncnc3[nH]c4cc(N5CCN(Cc6ccc7c(c6)N(C6CCC(=O)NC6=O)C(=O)C76CC6)CC5)ccc4c23)c(F)cc1[C@@H](C)NC(=O)c1noc(C(C)(C)C)n1 (stereo partly drawn) [Example 91, 5-(tert-butyl)-N-((1R)-1-(4-(7-(4-((1′-(2,6-dioxopiperidin-3-yl)-2′-oxospiro[cyclopropane-1,3′-indolin]-6′-yl)methyl)piperazin-1-yl)-9H-pyrimido[4,5-b]indol-4-yl)-5-fluoro-2-methylphenyl)ethyl)-1,2,4-oxadiazole-3-carboxamide]	> 2000 nM	> 10000 nM
Cc1cc(-c2ncnc3[nH]c4cc([C@H]5CCN(CC6CCN(c7ccc(N8CCC(=O)NC8=O)cc7)CC6)C5)ccc4c23)ccc1[C@@H](C)NC(=O)c1nc(C(C)(C)C)no1 [Example 14, 3-(tert-butyl)-N—((R)-1-(4-(7-((R)-1-((1-(4-(2,4-dioxotetrahydropyrimidin-1(2H)-yl)phenyl)piperidin-4-yl)methyl)pyrrolidin-3-yl)-9H-pyrimido[4,5-b]indol-4-yl)-2-methylphenyl)ethyl)-1,2,4-oxadiazole-5-carboxamide]	0.495 nM	3340 nM

From patent US20240366770A1, “DEGRADATION OF BRUTON'S TYROSINE KINASE (BTK) BY CONJUGATION OF BTK INHIBITORS WITH E3 LIGASE LIGAND AND METHODS OF USE” (BeiGene Switzerland GmbH, priority 2021, published 2024)
